Laboratory results from the supplement of paper PMC10307832.

Legend:
Test in all cases: relative viability (nuclei count vs DMSO), 5 days (fraction); higher = more cells survive
Dabrafenib + Pictilisib = compound: CC(C)(C)c1nc(-c2cccc(NS(=O)(=O)c3c(F)cccc3F)c2F)c(-c2ccnc(N)n2)s1 [Dabrafenib] + CS(=O)(=O)N1CCN(Cc2cc3nc(-c4cccc5[nH]ncc45)nc(N4CCOCC4)c3s2)CC1 [Pictilisib] (partner 1 µM)
In short: (§1)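 Lung cancer cell lines were seeded in 1536-well plates and dosed by pin tool the next day, with either a single drug or a fixed anchor-drug dose combined with five library-drug doses (not always all listed) spaced in √10 steps. Five days later, one step fixed the cells and stained their nuclei (final 0.05% Triton X-100, 1% formaldehyde, 1 ug/ml Hoechst), and nuclei were counted on 4× images. Relative viability is the nuclei count in treated wells divided by the count in vehicle wells, and each value is the median of duplicate plates.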

VX-702 + Lapatinib = compound: NC(=O)c1ccc(N(C(N)=O)c2c(F)cccc2F)nc1-c1ccc(F)cc1F [VX-702] + CS(=O)(=O)CCNCc1ccc(-c2ccc3ncnc(Nc4ccc(OCc5cccc(F)c5)c(Cl)c4)c3c2)o1 [Lapatinib] (partner 2 µM)
In short: as §1

VX-702 + Alpelisib = compound: NC(=O)c1ccc(N(C(N)=O)c2c(F)cccc2F)nc1-c1ccc(F)cc1F [VX-702] + Cc1nc(NC(=O)N2CCC[C@H]2C(N)=O)sc1-c1ccnc(C(C)(C)C(F)(F)F)c1 [Alpelisib] (partner 2 µM)
In short: as §1

Dabrafenib + Lapatinib = compound: CC(C)(C)c1nc(-c2cccc(NS(=O)(=O)c3c(F)cccc3F)c2F)c(-c2ccnc(N)n2)s1 [Dabrafenib] + CS(=O)(=O)CCNCc1ccc(-c2ccc3ncnc(Nc4ccc(OCc5cccc(F)c5)c(Cl)c4)c3c2)o1 [Lapatinib] (partner 2 µM)
In short: as §1

Row | Cell Line | relative viability (Dabrafenib + Pictilisib; first compound 0.003 µM) | relative viability (Dabrafenib + Pictilisib; first compound 0.009487 µM) | relative viability (Dabrafenib + Pictilisib; first compound 0.03 µM) | relative viability (Dabrafenib + Pictilisib; first compound 0.09487 µM) | relative viability (Dabrafenib + Pictilisib; first compound 0.3 µM) | relative viability (VX-702 + Lapatinib; first compound 0.02 µM) | relative viability (VX-702 + Lapatinib; first compound 0.2 µM) | relative viability (VX-702 + Lapatinib; first compound 0.6325 µM) | relative viability (VX-702 + Lapatinib; first compound 2 µM) | relative viability (VX-702 + Alpelisib; first compound 0.02 µM) | relative viability (VX-702 + Alpelisib; first compound 0.2 µM) | relative viability (VX-702 + Alpelisib; first compound 0.6325 µM) | relative viability (VX-702 + Alpelisib; first compound 2 µM) | relative viability (Dabrafenib + Lapatinib; first compound 0.003 µM) | relative viability (Dabrafenib + Lapatinib; first compound 0.009487 µM) | relative viability (Dabrafenib + Lapatinib; first compound 0.03 µM) | relative viability (Dabrafenib + Lapatinib; first compound 0.09487 µM) | relative viability (Dabrafenib + Lapatinib; first compound 0.3 µM)
1 | HCC-15 | 0.595 | 0.851 | 0.654 | 0.797 | 0.725 | 0.837 | 0.838 | 0.857 | 0.928 | 0.844 | 0.777 | 0.848 | 0.956 | 0.788 | 0.809 | 0.891 | 0.739 | 0.732
2 | HCC-44 | 0.555 | 0.67 | 0.499 | 0.704 | 0.699 | 1.03 | 1.03 | 0.982 | 1.05 | 0.861 | 0.866 | 0.588 | 0.8 | 0.996 | 0.982 | 1.11 | 0.86 | 0.964
3 | HCC-78 | – | 0.235 | 0.192 | 0.276 | 0.219 | 0.871 | 0.456 | 0.603 | 0.98 | 0.303 | 0.33 | 0.287 | 0.32 | – | 0.697 | 0.702 | 0.754 | 0.838
4 | HCC-366 | 0.161 | 0.183 | 0.0973 | 0.169 | 0.118 | 1.03 | 1.15 | 1.23 | 0.791 | 0.37 | 0.369 | 0.296 | 0.463 | – | 1.08 | 0.776 | 1.05 | 1.2
5 | HCC-827 | 1.07 | 1.13 | 0.89 | – | 1.03 | 0.181 | 0.191 | 0.19 | 0.152 | 0.982 | 1.04 | 0.884 | 0.684 | 0.133 | 0.228 | 0.185 | 0.185 | 0.186
6 | HOP-62 | – | 0.843 | 0.648 | 0.581 | 0.727 | 1.04 | 0.894 | 1.08 | 0.975 | 1.12 | 1.17 | 1.06 | 1.19 | – | 1.07 | 0.822 | 0.889 | 0.784
7 | IA-LM | 0.379 | 0.569 | 0.444 | 0.412 | 0.255 | 0.789 | 0.738 | 0.77 | 0.761 | 0.718 | 0.725 | 0.782 | 0.748 | 0.774 | 0.7 | 0.835 | 0.689 | 0.464
8 | LC-2-ad | 0.489 | 0.137 | 0.408 | 0.455 | 0.497 | 0.892 | 0.972 | 1.01 | 1.03 | 0.943 | 0.885 | 0.868 | 1.02 | 0.862 | 1.01 | 0.976 | 0.886 | 0.925
9 | LCLC-97TM1 | – | 0.206 | 0.213 | – | 0.149 | 0.908 | 0.786 | 1.3 | 0.947 | 0.187 | 0.238 | 0.205 | 0.227 | – | 1.19 | 0.994 | – | 0.916
10 | LK-2 | 0.552 | 0.614 | – | 0.587 | 0.748 | 0.986 | 0.727 | 0.891 | 0.895 | 0.611 | – | 0.635 | 1.18 | 0.885 | 1.02 | – | 0.902 | 0.985
11 | LOU-NH91 | – | 0.549 | 0.555 | 0.548 | 0.566 | 0.789 | 0.645 | 0.639 | 0.675 | 0.699 | 0.683 | 0.702 | 0.562 | – | 0.789 | 0.683 | 0.772 | 0.802
12 | LU99A | 0.336 | 0.268 | 0.342 | 0.299 | 0.266 | 0.948 | 1.02 | 0.987 | 0.982 | 0.52 | 0.485 | 0.48 | 0.467 | 0.974 | 0.971 | 0.994 | 0.852 | 0.751
13 | LXF-289 | 0.656 | 0.809 | 0.671 | 0.853 | 0.842 | 0.965 | 0.876 | 0.912 | 0.922 | 1.07 | 1.03 | 1.01 | 1.05 | 0.867 | 0.907 | 1.11 | 1 | 1.09
14 | NCI-H23 | – | 0.465 | 0.461 | 0.455 | 0.503 | 1.12 | 1.01 | 1.04 | 1.25 | 0.659 | 0.65 | 0.683 | 0.998 | – | 1.21 | 1.08 | 0.712 | 1.02
15 | NCI-H322M | – | 0.539 | – | 0.542 | 0.489 | 0.58 | 0.616 | 0.583 | 0.674 | 0.873 | 0.695 | 0.779 | 0.894 | – | 0.657 | – | 0.584 | 0.559
16 | NCI-H358 | – | 0.307 | 0.339 | 0.405 | 0.282 | 0.485 | 0.442 | 0.484 | 0.546 | 0.804 | 0.778 | 0.777 | 0.973 | – | 0.53 | 0.369 | 0.446 | 0.465
17 | NCI-H460 | 0.194 | 0.352 | 0.245 | 0.653 | 0.553 | 0.931 | 0.906 | 1.14 | 0.984 | 0.465 | 0.46 | 0.448 | 0.487 | 1.04 | 1.03 | 1.05 | 0.925 | 0.83
18 | NCI-H520 | 0.344 | 0.295 | 0.237 | 0.265 | 0.253 | 0.809 | 1.05 | 0.798 | 1.05 | 0.919 | 0.788 | 0.796 | 1.06 | 0.856 | 0.867 | 0.642 | 0.816 | 0.727
19 | NCI-H596 | 0.372 | 0.364 | 0.194 | 0.397 | 0.423 | 1.09 | 1.01 | 1.13 | 1.1 | 0.437 | 0.436 | 0.509 | 0.426 | 0.994 | 1.11 | 0.814 | 1.04 | 1.05
